Measured values: ChEMBL document CHEMBL3785061, “Evaluation of the anti-inflammatory action of curcumin analog (DM1): Effect on iNOS and COX-2 gene expression and autophagy pathways” (Bioorg Med Chem, 2016)
One block for each compound: values may come before it. Active and inactive are the calls of the source. The calls are words filed in the database; no cut-off is given here.

What was measured:
Mus musculus [1] = test: In vivo inhibition of myeloperoxidase activity in bradykinin-induced Swiss mouse peritonitis model at 1 to 100 mg/kg, ip administered prior to bradykinin challenge for 4hrs; format: functional, organism-based
Mus musculus [2] = test: Antiinflammatory activity in bradykinin-induced peritonitis Swiss mouse model assessed as decrease in total number of cells in pertonial cavity at 3 mg/kg, ip administered for 30 mins prior to bradykinin challenge; format: functional
Mus musculus [3] = test: Antiinflammatory activity against carrageenan-induced paw edema in Swiss mouse at 3 mg/kg, ip measured at 15 to 90 mins administered 30 mins prior to carrageenan-challenge by plethysmometric analysis; format: functional
Mus musculus [4] = test: Antiinflammatory activity against bradykinin-induced paw edema in Swiss mouse at 100 mg/kg, ip measured at 15 to 90 mins administered 30 mins prior to bradikynin-challenge by plethysmometric analysis; format: functional
Mus musculus [5] = test: Antiinflammatory activity against substance-P-induced paw edema in Swiss mouse at 3 mg/kg, ip measured at 15 to 90 mins administered 30 mins prior to substance p-challenge by plethysmometric analysis; format: functional
Mus musculus [6] = test: Antiinflammatory activity in carrageenan-induced Swiss mouse peritonitis model assessed as decrease in total number of cells in pertonial cavity at 3 mg/kg, ip administered for 4 hrs prior to carrageenan challenge; format: functional; parameters: scale not given: the % may be the effect or the level left
Mus musculus [7] = test: In vivo inhibition of myeloperoxidase activity in carrageenan-induced Swiss mouse peritonitis model at 1 to 100 mg/kg, ip administered prior to carrageenan challenge for 4hrs; format: functional, organism-based
Mus musculus [8] = test: Antiinflammatory activity in substance p-induced Swiss mouse peritonitis model assessed as decrease in total number of cells in pertonial cavity at 3 mg/kg, ip administered for 30 mins prior to substance-P challenge; format: functional
RAW264.7 [9] = test: Inhibition of COX2 expression in LPS-stimulated mouse RAW264.7 cells at 12.5 to 50 ug/ml preincubated with the compound followed by LPS stimulation for 24 hrs by Real-Time PCR; format: functional, cell-based
RAW264.7 [10] = test: Cytotoxicity against mouse RAW264.7 cells assessed as cell viability at 100 ug/ml after 24 hrs by MTT assay; format: cell-based; settings: raw264.7, 24 h
RAW264.7 [11] = test: Inhibition of iNOS expression in LPS-stimulated mouse RAW264.7 cells at 12.5 to 50 ug/ml preincubated with the compound followed by LPS stimulation for 24 hrs by Real-Time PCR; format: functional, cell-based
A-375 [12] = test: Induction of autophagy in human A375 cells assessed as increase in LC3-2 complex concentration at 65 uM after 1 hr by Western blot analysis; format: functional, cell-based
A-375 [13] = test: Induction of autophagy in human A375 cells assessed as increase in LC3-2 complex concentration at 65 uM after 6 hrs by Western blot analysis; format: functional, cell-based
Mus musculus [14] = test: Antiinflammatory activity in carrageenan-induced Swiss mouse peritonitis model assessed as effect on total number of cells in peritonial cavity at 1 to 10 mg/kg, ip administered 30 mins prior to carrageenan challenge; format: functional, organism-based
Mus musculus [15] = test: Antiinflammatory activity against carrageenan-induced paw edema in Swiss mouse at 10 mg/kg, ip measured at 15 to 90 mins administered 30 mins prior to carrageenan-challenge by plethysmometric analysis; format: functional
Mus musculus [16] = test: Antiinflammatory activity against carrageenan-induced paw edema in Swiss mouse at 100 mg/kg, ip measured at 15 to 90 mins administered 30 mins prior to carrageenan-challenge by plethysmometric analysis; format: functional
Mus musculus [17] = test: Antiinflammatory activity against bradykinin-induced paw edema in Swiss mouse at 10 mg/kg, ip measured at 15 to 90 mins administered 30 mins prior to bradikynin-challenge by plethysmometric analysis; format: functional
Mus musculus [18] = test: Antiinflammatory activity against bradykinin-induced paw edema in Swiss mouse at 3 mg/kg, ip measured at 15 to 90 mins administered 30 mins prior to bradikynin-challenge by plethysmometric analysis; format: functional
Mus musculus [19] = test: Antiinflammatory activity against substance-P-induced paw edema in Swiss mouse at 10 mg/kg, ip measured at 15 to 90 mins administered 30 mins prior to substance p-challenge by plethysmometric analysis; format: functional
Mus musculus [20] = test: Antiinflammatory activity against substance-P-induced paw edema in Swiss mouse at 100 mg/kg, ip measured at 15 to 90 mins administered 30 mins prior to substance p-challenge by plethysmometric analysis; format: functional
Mus musculus [21] = test: Antiinflammatory activity in carrageenan-induced Swiss mouse peritonitis model assessed as decrease in total number of cells in pertonial cavity at 100 mg/kg, ip administered 30 mins prior to carrageenan challenge; format: functional; parameters: scale not given: the % may be the effect or the level left
Mus musculus [22] = test: Antiinflammatory activity in bradykinin-induced Swiss mouse peritonitis model assessed as decrease in total number of cells in pertonial cavity at 1 mg/kg, ip administered for 30 mins prior to bradykinin challenge; format: functional, organism-based
Mus musculus [23] = test: Antiinflammatory activity in bradykinin-induced peritonitis Swiss mouse model assessed as decrease in total number of cells in pertonial cavity at 10 mg/kg, ip administered for 30 mins prior to bradykinin challenge; format: functional
Mus musculus [24] = test: Antiinflammatory activity in bradykinin-induced peritonitis Swiss mouse model assessed as decrease in total number of cells in pertonial cavity at 100 mg/kg, ip administered for 30 mins prior to bradykinin challenge; format: functional
Mus musculus [25] = test: Antiinflammatory activity in bradykinin-induced peritonitis ip dosed Swiss mouse model assessed as decrease in total number of cells in pertonial cavity administered for 4 hrs prior to bradykinin challenge; format: functional
Mus musculus [26] = test: Antiinflammatory activity in substance p-induced Swiss mouse peritonitis model assessed as decrease in total number of cells in pertonial cavity at 1 to 10 mg/kg, ip administered for 30 mins prior to substance-P challenge; format: functional, organism-based
Mus musculus [27] = test: Antiinflammatory activity in substance p-induced Swiss mouse peritonitis model assessed as decrease in total number of cells in pertonial cavity at 100 mg/kg, ip administered for 30 mins prior to substance-P challenge; format: functional
RAW264.7 [28] = test: Inhibition of LPS-induced nitric oxide production in mouse RAW264.7 cells preincubated for 1 hr followed by LPS stimulation by Greiss assay; format: functional, cell-based

SMILES: CC(=O)OCC(=O)[C@@]12N=C(C)O[C@@H]1C[C@H]1[C@@H]3CCC4=CC(=O)C=C[C@]4(C)[C@H]3[C@@H](O)C[C@@]12C [DEFLAZACORT]
inhibition (Mus musculus [1]): Active
inhibition in vivo at 3 mg/kg (Mus musculus [2]): 46.2%
inhibition in vivo at 3 mg/kg (Mus musculus [3]): 29.2%
inhibition in vivo at 100 mg/kg (Mus musculus [4]): 30.1%
inhibition in vivo at 3 mg/kg (Mus musculus [5]): 32.8%
Activity (Mus musculus [6]): 57.1%
inhibition (Mus musculus [7]): Active
inhibition in vivo at 3 mg/kg (Mus musculus [8]): 53.3%

IC50 (RAW264.7 [28]): 7.7 µM
SMILES: COc1cc(/C=C/C(=O)/C=C/c2ccc(O)c(OC)c2)ccc1[O-].[Na+]
inhibition (RAW264.7 [9]): Active
Activity (RAW264.7 [10]): Non-toxic
inhibition (RAW264.7 [11]): Active
Activity (A-375 [12]): Active
Activity (A-375 [13]): inactive
Activity (Mus musculus [14]): inactive
inhibition (Mus musculus [1]): Active
inhibition in vivo at 10 mg/kg (Mus musculus [15]): 17.2%
inhibition in vivo at 100 mg/kg (Mus musculus [16]): 18.9%
inhibition in vivo at 10 mg/kg (Mus musculus [17]): 30.8%
inhibition in vivo at 3 mg/kg (Mus musculus [18]): 39.2%
inhibition in vivo at 10 mg/kg (Mus musculus [19]): 15.4%
inhibition in vivo at 100 mg/kg (Mus musculus [20]): 31.5%
Activity (Mus musculus [21]): 38.4%
Activity (Mus musculus [22]): inactive
inhibition in vivo at 10 mg/kg (Mus musculus [23]): 65.4%
inhibition in vivo at 100 mg/kg (Mus musculus [24]): 78.8%
ED50 (Mus musculus [25]): 7.6 mg/kg
inhibition (Mus musculus [7]): Active
Activity (Mus musculus [26]): inactive
inhibition in vivo at 100 mg/kg (Mus musculus [27]): 40%
